Data on 86 compounds can be found in ChEMBL document CHEMBL5604062, “ASAP - ZIKV NS2B-NS3 protease fluorescence dose response” (2024).

Values joined by “and” are separate entries in the source; they are usually repeats but may differ in a detail not shown here. Identical values can stand only once.

The target in the test is Nonstructural protein 3 (Zika virus, UniProt A0A024AXB9). The experiment in a line: Functional biochemical assay to identify treatments for viral infectious disease that targets Zika NS2B-NS3 protease. Utilizing a direct enzyme activity measurement method, reading the fluorescence intensity is used to characterize the relative potency of inhibitors as IC50. Details: species or system PRVABC59.
Nonstructural protein 3, sequence (A0A024AXB9 whole entry): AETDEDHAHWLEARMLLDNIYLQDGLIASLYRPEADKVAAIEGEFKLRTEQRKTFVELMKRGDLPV
The term IC50 denotes the concentration needed to halve the response being measured. A lower IC50 goes with higher potency. As to `O=C(N[C@H](C(=O)NCc1cccc(CC(F)(F)F)c1)c1ccc(OCc2ccccc2)cc1)OCc1ccccc1`, the IC50 is > 99.5 µM.

`CCn1c(=O)c(N2CCCC[C@H](N3CCCC3)C2)nc2ccccc21`: the IC50 was > 99.5 µM.

Regarding `Cc1ccc([C@@H](NC(=O)OCc2ccccc2)C(=O)Nc2cccc(CN)c2)cc1C(F)(F)F`, the IC50 was 48.7 µM.

As to `CCn1c(=O)c(N2C[C@@H](CO)[C@H](c3cncn3C)C2)nc2ccccc21`, the IC50 was > 99.5 µM.

For the compound `NC(=O)c1cccnc1N1CCCN(c2nc(-c3cc(Cl)cc(Cl)c3)no2)CC1`, the IC50 is > 99.5 µM.

Compound `O=c1[nH]ncn1C1CCN(Cc2c[nH]c3ccccc23)CC1` had an IC50 of 34.1 µM.

Regarding `CCn1c(=O)c(N2CC[C@H](N3CCCS3(=O)=O)C2)nc2ccccc21`, the IC50 is > 99.5 µM.

With `N#Cc1ccccc1-c1ccc([C@H](NC(=O)OCc2ccccc2)C(=O)Nc2cccc(CN)c2)cc1`, it took 12 µM to reach half-maximal inhibition (IC50).

For `CCNC(=O)[C@@H](NC(=O)OCc1ccccc1)c1ccc(OCc2ccccc2)cc1`, the IC50 was > 99.5 µM.

For the compound `CCn1c(=O)c(N2C[C@H]3C[C@@H](O)CC[C@H]3C2)nc2ccccc21`, the half-inhibitory concentration (IC50) was > 99.5 µM.

For the compound `CS(=O)(=O)NCc1ccc(CNC(=O)[C@@H](NC(=O)OCc2ccccc2)c2ccc(OCc3ccccc3)cc2)cc1`, the IC50 is > 99.5 µM.

`NCc1cccc(NC(=O)[C@@H](NC(=O)OCc2ccccc2)c2ccc(-c3ccc4scnc4c3)cc2)c1`: the IC50 came to 12.3 µM.

Regarding `O=C(NS(=O)(=O)C1CC1)c1cc(Cl)ccc1NS(=O)(=O)c1ccc(Oc2ccccc2Cl)cc1`, the IC50 is 19.5 µM.

Regarding `CC(C)n1cc(CNC(=O)[C@@H](NC(=O)OCc2ccccc2)c2ccc(OCc3ccccc3)cc2)cn1`, the IC50 was > 99.5 µM.

`CN1Cc2ccc(CNC(=O)[C@@H](NC(=O)OCc3ccccc3)c3ccc(OCc4ccccc4)cc3)cc2C1` gave an IC50 of 72.4 µM.

As to `CC[C@H]1CN2CCC[C@H]2CN1c1nc2ccccc2n(CC)c1=O`, the IC50 is > 99.5 µM.

Consider `CCn1c(=O)c(N2C[C@@H]3CN(C4CCC4)C[C@@H]3C2)nc2ccccc21`, for which the IC50 is > 99.5 µM.

For `CCn1c(=O)c(N2CC3(CCC3)C[C@@H]2C)nc2ccccc21`, the IC50 is > 99.5 µM.

In turn, `CC(C)c1cc(-c2ccc([C@@H](NC(=O)OCc3ccccc3)C(=O)Nc3cccc(CN)c3)cc2)on1` yielded an IC50 of 24 µM.

For the compound `NCc1cccc(NC(=O)[C@@H](NC(=O)OCc2ccccc2)c2ccc(-c3ccnc4[nH]ccc34)cc2)c1`, the IC50 was > 99.5 µM.

Turning to `CCn1cc(-c2ccccc2N)nc(N2CC[C@@H](CO)C2)c1=O`, the IC50 is > 99.5 µM.

As to `O=C(O)c1cc(Cl)ccc1CNS(=O)(=O)c1ccc(Oc2ccccc2Cl)cc1`, the IC50 was > 99.5 µM.

`CCn1c(=O)c(N2C[C@@H]3CS(=O)(=O)C[C@@H]3C2)nc2ccccc21`: the IC50 is > 99.5 µM.

In the case of `COc1cncc(CNC(=O)[C@@H](NC(=O)OCc2ccccc2)c2ccc(OCc3ccccc3)cc2)c1`, the IC50 was > 99.5 µM.

Consider `CCn1c(=O)c(N2CC[C@@H](CN3CCCCC3)C2)nc2ccccc21`, for which the half-inhibitory concentration (IC50) was > 99.5 µM.

With `Cc1noc(C)c1-c1ccc([C@@H](NC(=O)OCc2ccccc2)C(=O)Nc2cccc(CN)c2)cc1`, the IC50 is 57.3 µM.

As to `O=C(O)Cn1ccnc(N2CC[C@@H](CO)C2)c1=O`, the IC50 was > 99.5 µM.

With `CN1CCc2ccc(C(=O)N3CCNc4ccccc4C3)cc2C1`, the IC50 was > 99.5 µM.

In the case of `NS(=O)(=O)c1ccc(N2CCC=C(c3cccc(O)c3)C2)c2ncccc12`, the IC50 is > 99.5 µM.

Regarding `O=C(O)c1cc(Cl)ccc1NS(=O)(=O)c1ccc(N[C@H]2CCCOC2)nc1`, the IC50 was > 99.5 µM.

Turning to `CCn1c(=O)c(N2C[C@@H]3CCO[C@]3(COC)C2)nc2ccccc21`, the IC50 is > 99.5 µM.

Turning to `CCn1c(=O)c(N2CCC[C@H]2c2noc(C)n2)nc2ccccc21`, the 50% inhibitory concentration (IC50) was > 99.5 µM.

For `CN(C)Cc1ccccc1CNC(=O)[C@@H](NC(=O)OCc1ccccc1)c1ccc(OCc2ccccc2)cc1`, the IC50 is > 99.5 µM.

As for `CN(C)Cc1cncc(NC(=O)[C@@H](NC(=O)OCc2ccccc2)c2ccc(OCc3ccccc3)cc2)c1`, the IC50 was > 99.5 µM.

Regarding `Cc1nc(-c2ccc([C@@H](NC(=O)OCc3ccccc3)C(=O)Nc3cccc(CN)c3)cc2)cs1`, the IC50 was > 99.5 µM.

As for `O=C(N[C@H](C(=O)NCc1ccc(F)cc1)c1ccc(OCc2ccccc2)cc1)OCc1ccccc1`, the 50% inhibitory concentration (IC50) is > 99.5 µM.

With `CCn1c(=O)c(N2CC[C@@]3(COC(=O)N3)C2)nc2ccccc21`, the IC50 was > 99.5 µM.

For `NCc1cccc(NC(=O)[C@@H](NC(=O)OCc2ccccc2)c2ccc(C3=CCCOC3)cc2)c1`, it took 68.7 µM to reach half-maximal inhibition (IC50).

In the case of `CN1CC[C@H](C2CCN(S(=O)(=O)c3cc(F)cc(C(=O)O)c3)CC2)C1`, the IC50 is > 99.5 µM.

As for `CN(C)CCOc1cccc(CNC(=O)[C@@H](NC(=O)OCc2ccccc2)c2ccc(OCc3ccccc3)cc2)c1`, the IC50 is > 99.5 µM.

Take `CCn1cc(C(=O)O)nc(N2CC[C@@H](CO)C2)c1=O`: the concentration for half-maximal inhibition (IC50) is > 99.5 µM.

For `Cc1cnn(-c2cccc(-c3cccc(C4(CN)CC4)c3)c2)c1`, the IC50 was > 99.5 µM.

On to `O=C(N[C@@H](C(=O)NCc1cccnc1)c1ccc(OCc2ccccc2)cc1)OCc1ccccc1`, for which the IC50 was > 99.5 µM.

Take `CS(=O)(=O)c1cccc(CNC(=O)[C@@H](NC(=O)OCc2ccccc2)c2ccc(OCc3ccccc3)cc2)c1`: the IC50 was > 99.5 µM.

For `CCn1c(=O)c(N2CCC[C@H]2c2cncc(Br)c2)nc2ccccc21`, the IC50 was > 99.5 µM.

On to `O=C(N[C@@H](C(=O)NCc1c[nH]cn1)c1ccc(OCc2ccccc2)cc1)OCc1ccccc1`, for which the IC50 is > 99.5 µM.

The compound `Cc1ccc(COc2ccc(S(=O)(=O)Nc3ccc(Cl)cc3C(=O)O)cc2)cc1` displayed an IC50 of 17.3 µM.

As to `O=C(N[C@@H](C(=O)NC1CCCCC1)c1ccc(OCc2ccccc2)cc1)OCc1ccccc1`, the IC50 is > 99.5 µM.

On to `CCn1c(=O)c(N2CC[C@H](NC(=O)NC3CC3)C2)nc2ccccc21`, for which the half-inhibitory concentration (IC50) is > 99.5 µM.

Take `NCc1cccc(NC(=O)[C@@H](NC(=O)OCc2ccccc2)c2ccc(-c3ccc4cn[nH]c4c3)cc2)c1`: the IC50 was 6.07 µM and 5.74 µM.

On to `CN1CCC(c2nc(C(F)(F)F)n3c2CN(c2cccc(C(N)=O)n2)CC3)CC1`, for which the IC50 was > 99.5 µM.

For `CCn1c(=O)c(N2C[C@H]3COC(C)(C)OC[C@H]3C2)nc2ccccc21`, the IC50 was > 99.5 µM.

On to `CN1CCc2ncc(NC(=O)[C@@H](NC(=O)OCc3ccccc3)c3ccc(OCc4ccccc4)cc3)cc2C1`, for which the IC50 was > 99.5 µM.

In the case of `CCn1c(=O)c(N2CC(S(=O)(=O)N3CCCC3)C2)nc2ccccc21`, the IC50 was > 99.5 µM.

`OCc1ccc(Cl)c(N2CCN(c3ccc4[nH]cnc4c3)CC2)n1`: the IC50 was > 99.5 µM.

Turning to `CCn1c(=O)c(N2C[C@@H]3[C@H](C2)[C@H]3C(=O)OC)nc2ccccc21`, the IC50 is > 99.5 µM.

Consider `CC(C)c1cnc(COc2ccc(S(=O)(=O)Nc3ccc(Cl)cc3C(=O)O)cc2)o1`, for which the IC50 was > 99.5 µM.

Consider `O=C(N[C@@H](C(=O)NCc1ccncc1)c1ccc(OCc2ccccc2)cc1)OCc1ccccc1`, for which the concentration for half-maximal inhibition (IC50) was > 99.5 µM.

With `CCn1c(=O)c(N2CC[C@@H](Cc3ccncc3)C2)nc2ccccc21`, the IC50 was > 99.5 µM.

Turning to `CN(C)Cc1ccc(CNC(=O)[C@@H](NC(=O)OCc2ccccc2)c2ccc(OCc3ccccc3)cc2)cc1`, the IC50 is > 99.5 µM.

As to `NS(=O)(=O)c1cc(F)c(Cl)cc1N1CCN(c2ccnc(O)c2)CC1`, the IC50 is > 99.5 µM.

Take `CCn1c(=O)c(N2CC[C@@]23CCN(C)C3)nc2ccccc21`: the IC50 is > 99.5 µM.

In the case of `CCn1c(=O)c(N2CC3(CCCCC3)C[C@H]2CO)nc2ccccc21`, the IC50 is > 99.5 µM.

With `CN(C)Cc1cc(CNC(=O)[C@@H](NC(=O)OCc2ccccc2)c2ccc(OCc3ccccc3)cc2)ccc1F`, the 50% inhibitory concentration (IC50) was > 99.5 µM.

Regarding `CCn1c(=O)c(N2C[C@H]3CN(C)CC[C@H]3C2)nc2ccccc21`, the IC50 was > 99.5 µM.

Compound `CC(C)(C)c1ncc(-c2ccc([C@@H](NC(=O)OCc3ccccc3)C(=O)Nc3cccc(CN)c3)cc2)o1` yielded an IC50 of 36.3 µM.

On to `CCn1c(=O)c(N2CC[C@]3(CCCN(C)C3)C2)nc2ccccc21`, for which the IC50 was > 99.5 µM.

In the case of `O=C(O)c1ncc(F)cc1NS(=O)(=O)c1ccc(Oc2ccccc2Cl)cc1`, the IC50 was > 99.5 µM.

Take `CCn1c(=O)c(N2C[C@H]3OCCN(C(C)=O)[C@H]3C2)nc2ccccc21`: the IC50 is > 99.5 µM.

With `C[C@@H]1c2cccnc2CCN1Cc1cccc(CN(C)C)c1`, the 50% inhibitory concentration (IC50) was > 99.5 µM.

For `O=C(N[C@@H](C(=O)Nc1cccnc1)c1ccc(OCc2ccccc2)cc1)OCc1ccccc1`, the IC50 is > 99.5 µM.

On to `CCn1cc(-c2ccc(S(C)(=O)=O)cc2)nc(N2CC[C@@H](CO)C2)c1=O`, for which the IC50 is > 99.5 µM.

Take `CCn1c(=O)c(N2CC[C@@]3(CCCN3C)C2)nc2ccccc21`: the concentration for half-maximal inhibition (IC50) was > 99.5 µM.

Regarding `CNc1nc2cc(-c3ccc4c(c3)C[C@H](N)C4)ccc2o1`, the IC50 was > 99.5 µM.

Regarding `CN(C)[C@H]1CCc2cc(-c3cccc(N4CCNC4=O)c3)ccc2NC1`, the IC50 is > 99.5 µM.

In turn, `NCc1cccc(NC(=O)[C@@H](NC(=O)OCc2ccccc2)c2ccc(-c3ccncc3F)cc2)c1` returned an IC50 of 38.9 µM.

For the compound `O=C(O)c1cc(Cl)c(F)cc1NS(=O)(=O)c1ccc(Oc2ccccc2)cc1`, the IC50 worked out at 30.3 µM.

For the compound `COc1ccccc1-c1ccc([C@@H](NC(=O)OCc2ccccc2)C(=O)Nc2cccc(CN)c2)cc1`, the IC50 was 27.2 µM.

With `CC(C)(CO)NC(=O)[C@@H](NC(=O)OCc1ccccc1)c1ccc(OCc2ccccc2)cc1`, the IC50 is > 99.5 µM.

In the case of `Cn1cc(-c2ccc([C@@H](NC(=O)OCc3ccccc3)C(=O)Nc3cccc(CN)c3)cc2)ccc1=O`, the IC50 is > 99.5 µM.

As for `CCn1c(=O)c(N2C[C@H]3CCCN3C(=O)[C@H]2C)nc2ccccc21`, the half-maximal inhibitory concentration (IC50) is > 99.5 µM.

With `CCn1c(=O)c(N2CCC[C@H]2CN2CCCC2)nc2ccccc21`, the IC50 is > 99.5 µM.

On to `O=C(N[C@@H](C(=O)NCc1ccccn1)c1ccc(OCc2ccccc2)cc1)OCc1ccccc1`, for which the IC50 was > 99.5 µM.

Consider `CCn1c(=O)c(N2CC[C@H](N3CCN(C)CC3)C2)nc2ccccc21`, for which the IC50 is > 99.5 µM.

With `CCn1c(=O)c(N2CCC[C@H]2c2ncccn2)nc2ccccc21`, the IC50 is > 99.5 µM.

For the compound `Cn1nc(C2CCN(C(=O)c3ccccc3CSc3nnc[nH]3)CC2)cc1O`, the IC50 was > 99.5 µM.
